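A five-concentration, 48-hour dose response in 96-well plates underlies each endpoint, interpolated linearly between surrounding concentrations. GI50 = concentration required for 50% inhibition of growth. TGI: concentration producing complete growth inhibition.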
How the values were obtained:
Test in all cases: DTP human tumour cell line panel, 48 h
[1] = system: 786-0 renal
[2] = system: A498 renal
[3] = system: BT-549 breast
[4] = system: CAKI-1 renal
[5] = system: CCRF-CEM leukemia
[6] = system: COLO 205 colon
[7] = system: DU-145 prostate
[8] = system: EKVX NSCLC
[9] = system: HCC-2998 colon
[10] = system: HCT-116 colon
[11] = system: HCT-15 colon
[12] = system: HL-60(TB) leukemia
[13] = system: HOP-62 NSCLC
[14] = system: HOP-92 NSCLC
[15] = system: HS 578T breast
[16] = system: HT29 colon
[17] = system: IGROV1 ovarian
[18] = system: K-562 leukemia
[19] = system: KM12 colon
[20] = system: LOX IMVI melanoma
[21] = system: M14 melanoma
[22] = system: MALME-3M melanoma
[23] = system: MCF7 breast
[24] = system: MDA-MB-231 breast
[25] = system: MDA-MB-435
[26] = system: MDA-MB-468 breast
[27] = system: MOLT-4 leukemia
[28] = system: NCI-H226 lung
[29] = system: NCI-H23 lung
[30] = system: NCI-H522 lung
[31] = system: OVCAR-3 ovarian
[32] = system: OVCAR-4 ovarian
[33] = system: OVCAR-5 ovarian
[34] = system: OVCAR-8 ovarian
[35] = system: PC-3 prostate
[36] = system: RPMI-8226 leukemia
[37] = system: RXF 393 renal
[38] = system: SF-268 CNS
[39] = system: SF-295 CNS
[40] = system: SF-539 CNS
[41] = system: SK-MEL-2 melanoma
[42] = system: SK-MEL-28 melanoma
[43] = system: SK-MEL-5 melanoma
[44] = system: SK-OV-3 ovarian
[45] = system: SN12C renal
[46] = system: SNB-19 CNS
[47] = system: SNB-75 CNS
[48] = system: SR leukemia
[49] = system: T-47D breast
[50] = system: TK-10 renal
[51] = system: U251 CNS
[52] = system: UACC-257 melanoma
[53] = system: UACC-62 melanoma
[54] = system: UO-31 renal

In the case of `CN1CCN(C(=O)CCN(C(=O)Oc2cc3c(c4ccccc24)[C@H](CCl)CN3C(=O)c2cc3cc(OCCCN4CCC4)ccc3[nH]2)[C@H]2CCSSC2)CC1`, the GI50 [1] is reported as 330 nM, the TGI [1] is reported as 1140 nM and the GI50 [2] is reported as 199 nM. It also gave a TGI [2] of 386 nM, a GI50 [3] of 1020 nM and a TGI [3] of 2460 nM. It also gave a GI50 [4] of 150 nM, a TGI [4] of 509 nM and a GI50 [5] of 269 nM. The TGI [5] was 3510 nM, the GI50 [6] was 431 nM and the TGI [6] was 2260 nM. It also gave a GI50 [7] of 165 nM, a TGI [7] of 1250 nM and a GI50 [8] of 351 nM. For the same compound, the TGI [8] was 1550 nM, the GI50 [9] was 146 nM and the TGI [9] was 334 nM. For the same compound, the GI50 [10] was 234 nM, the TGI [10] was 1040 nM and the GI50 [11] was 209 nM. It also gave a TGI [11] of 1350 nM, a GI50 [12] of 390 nM and a TGI [12] of 2030 nM. The GI50 [13] was 146 nM, the TGI [13] was 678 nM and the GI50 [14] was 997 nM. For the same compound, the TGI [14] was 3640 nM, the GI50 [15] was 1230 nM and the TGI [15] was 3170 nM. The GI50 [16] was 211 nM, the TGI [16] was 963 nM and the GI50 [17] was 545 nM. It also gave a TGI [17] of 2450 nM, a GI50 [18] of 225 nM and a TGI [18] of 1590 nM. For the same compound, the GI50 [19] was 308 nM, the TGI [19] was 1510 nM and the GI50 [20] was 85.5 nM. The TGI [20] was 314 nM, the GI50 [21] was 195 nM and the TGI [21] was 653 nM. The GI50 [22] was 232 nM, the TGI [22] was 745 nM and the GI50 [23] was 49.5 nM. The TGI [23] was 1430 nM, the GI50 [24] was 402 nM and the TGI [24] was 1450 nM. It also gave a GI50 [25] of 285 nM, a TGI [25] of 1170 nM and a GI50 [26] of 148 nM. For the same compound, the TGI [26] was 442 nM, the GI50 [27] was 231 nM and the TGI [27] was 1580 nM. The GI50 [28] was 148 nM, the TGI [28] was 1160 nM and the GI50 [29] was 65.7 nM. For the same compound, the TGI [29] was 211 nM, the GI50 [30] was 254 nM and the TGI [30] was 1280 nM. The GI50 [31] was 426 nM, the TGI [31] was 1880 nM and the GI50 [32] was 1360 nM. It also gave a TGI [32] of 2780 nM, a GI50 [33] of 390 nM and a TGI [33] of 1390 nM. For the same compound, the GI50 [34] was 136 nM, the TGI [34] was 500 nM and the GI50 [35] was 378 nM. It also gave a TGI [35] of 2070 nM, a GI50 [36] of 570 nM and a TGI [36] of 3870 nM. For the same compound, the GI50 [37] was 189 nM, the TGI [37] was 454 nM and the GI50 [38] was 281 nM. The TGI [38] was 1630 nM, the GI50 [39] was 107 nM and the TGI [39] was 291 nM. For the same compound, the GI50 [40] was 325 nM, the TGI [40] was 1200 nM and the GI50 [41] was 345 nM. The TGI [41] was 1060 nM, the GI50 [42] was 208 nM and the TGI [42] was 502 nM. The GI50 [43] was 152 nM, the TGI [43] was 336 nM and the GI50 [44] was 313 nM. For the same compound, the TGI [44] was 7080 nM, the GI50 [45] was 527 nM and the TGI [45] was 9020 nM. The GI50 [46] was 272 nM, the TGI [46] was 1650 nM and the GI50 [47] was 497 nM. The TGI [47] was 2320 nM, the GI50 [48] was 66.1 nM and the TGI [48] was 906 nM. It also gave a GI50 [49] of 570 nM, a TGI [49] of 2400 nM and a GI50 [50] of 1560 nM. It also gave a TGI [50] of 3570 nM, a GI50 [51] of 100 nM and a TGI [51] of 377 nM. It also gave a GI50 [52] of 378 nM, a TGI [52] of 1810 nM and a GI50 [53] of 115 nM. It also gave a TGI [53] of 294 nM, a GI50 [54] of 190 nM and a TGI [54] of 480 nM.

Source: PubChem BioAssay (NCI)
